Assay results: US6383772B1, “Enzymatic conversion in a solvent mixture containing water and flourinated, non-chlorinated solvent” (Advanced Phytonic Limited, priority 1997, dated 2002)

Legend:
[1] = Solubility of 6-APA in Phytosol solvent; type: physicochemical
[2] = background statement; cited from earlier work
[3] = Effect of pH on extraction of PAA from enzymatic liquor with Phytosol D; type: physicochemical; conditions: 20 ml enzymatic liquor extracted with 40 ml Phytosol D
Protocol: This example was carried out to assess the efficiency and selectivity of Phytosol D in extracting PAA from the enzymatic liquor at different pH's.
The enzymatic liquor was prepared as described in Example 1 using the enzyme resin from Example C2.
20 ml samples of the liquor were extracted with 40 ml of Phytosol D, at various pH's, using hand held apparatus as follows:
The apparatus consists of a 100 ml graduated glass tube fitted with a filter assembly and a clamping ring which in turn is fitted with a needle valve. The material or solution to be extracted is charged into the tube. The filter is then assembled with the aid of a sealing O ring followed by the clamping ring ensuring that a tight fit is achieved. Phytosol liquid gas is introduced to the glass tube from an aerosol can via the needle valve. The contents of the tube are mixed by vigorous shaking after which the tube is inverted and allowed to stand until the two layers are separated. The Phytosol is then released via the needle valve into an evaporator bottle taking care not to allow any of the aqueous layer to co-discharge.

Row | SMILES | solubility in the solvent [1] | solubility in water [2] | Removed (% of total w/w) ([3]; pH 1.4) | Removed (% of total w/w) ([3]; pH 3.8) | Removed (% of total w/w) ([3]; pH 5.3) | Removed (% of total w/w) ([3]; pH 6.5) | Removed (% of total w/w) ([3]; pH 8.0)
1 | CC1(C)S[C@@H]2[C@H](N)C(=O)N2[C@H]1C(=O)O [6-APA, 6-Aminopenicillanic acid] | negligible | around 2% | <1 % of total w/w | <1 % of total w/w | 0 % of total w/w | 0 % of total w/w | 0 % of total w/w
2 | O=C(O)Cc1ccccc1 [PAA, Phenylacetic acid] |  |  | >99 % of total w/w | >99 % of total w/w | 6.5 % of total w/w | <2 % of total w/w | 0 % of total w/w
